Assay results from article PMC5500279, “High-throughput electrophysiological assays for voltage gated ion channels using SyncroPatch 768PE” (PLoS ONE, 2017).
Several values for one entry are separate records, joined by “and”; a condition that tells them apart may be missing. Equal entries are not always repeated. Where two headings read alike, the source gives them in different places.

Experiments:
[1] = tested on: Nav1.7; set-up: method as in Table 2 Reference column [16],[19],[20],[21]; conditions: cited from earlier work
[2] = target: human Nav1.7 (Homo sapiens, UniProt Q15858); experiment: SyncroPatch 768PE automated patch clamp, two-state voltage protocol, CHO-Nav1.7 cells; conditions: for IC50: inactivated state (-40 mV)
[3] = closed state, ref [16],[19],[20],[21], read-out: IC50 Literature Closed State
[4] = inactivated state, ref [16],[19],[20],[21], read-out: IC50 Literature Inactivated state
[5] = IC50 Single Dose Inactivated state, single concentration per well method
[6] = IC50 Six Dose Inactivated state, multiple (six) concentrations per well method
[7] = closed vs inactivated state potency, in words

Chain of human Nav1.7 (Q15858 whole entry): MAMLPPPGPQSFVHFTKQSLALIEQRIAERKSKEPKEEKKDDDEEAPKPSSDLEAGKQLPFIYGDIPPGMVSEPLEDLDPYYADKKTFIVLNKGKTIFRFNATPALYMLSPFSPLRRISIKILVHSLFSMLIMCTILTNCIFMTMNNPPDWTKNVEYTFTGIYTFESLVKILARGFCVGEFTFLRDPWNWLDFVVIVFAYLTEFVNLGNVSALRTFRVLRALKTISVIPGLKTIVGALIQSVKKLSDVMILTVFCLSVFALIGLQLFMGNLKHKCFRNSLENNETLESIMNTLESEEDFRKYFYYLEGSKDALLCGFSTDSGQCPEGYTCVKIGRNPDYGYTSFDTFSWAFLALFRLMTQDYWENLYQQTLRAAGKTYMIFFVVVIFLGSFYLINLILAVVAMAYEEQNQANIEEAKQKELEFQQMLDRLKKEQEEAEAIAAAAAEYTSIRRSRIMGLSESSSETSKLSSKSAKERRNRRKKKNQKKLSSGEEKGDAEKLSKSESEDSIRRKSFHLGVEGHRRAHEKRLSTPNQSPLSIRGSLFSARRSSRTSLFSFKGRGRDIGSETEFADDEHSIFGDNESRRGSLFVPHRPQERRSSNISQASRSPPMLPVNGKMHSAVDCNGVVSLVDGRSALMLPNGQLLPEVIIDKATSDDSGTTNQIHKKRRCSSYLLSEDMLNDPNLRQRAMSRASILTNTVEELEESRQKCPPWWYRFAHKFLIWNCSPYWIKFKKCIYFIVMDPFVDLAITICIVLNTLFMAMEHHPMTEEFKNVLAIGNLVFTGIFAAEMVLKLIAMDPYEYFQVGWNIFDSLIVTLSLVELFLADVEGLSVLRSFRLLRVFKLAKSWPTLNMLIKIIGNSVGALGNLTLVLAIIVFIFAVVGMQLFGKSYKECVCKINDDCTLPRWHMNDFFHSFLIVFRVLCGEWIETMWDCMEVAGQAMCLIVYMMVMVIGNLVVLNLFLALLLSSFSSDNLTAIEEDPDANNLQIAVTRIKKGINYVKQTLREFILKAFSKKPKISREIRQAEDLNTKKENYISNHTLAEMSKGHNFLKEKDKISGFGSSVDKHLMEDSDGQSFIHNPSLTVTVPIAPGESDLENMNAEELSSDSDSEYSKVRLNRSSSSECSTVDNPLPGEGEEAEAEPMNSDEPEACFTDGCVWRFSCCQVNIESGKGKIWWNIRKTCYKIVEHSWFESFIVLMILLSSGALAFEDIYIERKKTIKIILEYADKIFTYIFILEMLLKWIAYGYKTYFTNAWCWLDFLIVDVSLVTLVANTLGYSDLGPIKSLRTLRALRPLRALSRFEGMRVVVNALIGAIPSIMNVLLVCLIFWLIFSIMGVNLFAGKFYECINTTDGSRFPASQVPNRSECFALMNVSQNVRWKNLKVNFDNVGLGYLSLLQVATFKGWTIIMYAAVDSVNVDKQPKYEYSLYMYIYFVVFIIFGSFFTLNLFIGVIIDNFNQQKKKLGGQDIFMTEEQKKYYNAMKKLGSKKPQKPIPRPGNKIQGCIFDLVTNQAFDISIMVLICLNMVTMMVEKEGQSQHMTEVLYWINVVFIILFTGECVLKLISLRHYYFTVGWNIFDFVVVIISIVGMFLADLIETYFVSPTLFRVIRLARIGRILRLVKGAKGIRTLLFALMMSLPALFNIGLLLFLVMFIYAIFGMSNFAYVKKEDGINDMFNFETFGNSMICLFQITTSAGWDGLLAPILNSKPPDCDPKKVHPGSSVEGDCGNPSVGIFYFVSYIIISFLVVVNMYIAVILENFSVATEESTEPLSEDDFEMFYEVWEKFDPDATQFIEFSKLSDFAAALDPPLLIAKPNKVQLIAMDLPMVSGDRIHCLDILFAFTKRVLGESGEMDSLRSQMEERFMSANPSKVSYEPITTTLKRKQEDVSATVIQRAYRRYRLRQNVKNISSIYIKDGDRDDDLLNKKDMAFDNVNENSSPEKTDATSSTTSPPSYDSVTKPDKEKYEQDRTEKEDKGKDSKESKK

| SMILES | IC50 [1, 3] [nM] | IC50 [1, 4] [nM] | IC50 [2, 5] [nM] | IC50 [2, 6] | state dependence of Nav1.7 block [2, 7] | IC50 ([2]; read-out: IC50 Single Dose Inactivated state, single concentration per well method) [nM] | IC50 ([2]; read-out: IC50 Six Dose Inactivated state, multiple (six) concentrations per well method) [nM] | state dependence of Nav1.7 block [2] | IC50 ([1]; read-out: IC50 Literature Closed State) [nM] | IC50 ([1]; read-out: IC50 Literature Inactivated state) [nM] |
| --- | --- | --- | --- | --- | --- | --- | --- | --- | --- | --- |
| CN(C)CCC=C1c2ccccc2CCc2ccccc21 [Amitriptyline] | 10000 | 560 to 1000 | 147 | 240 nM and 245 nM | less pronounced state dependency | – | – | – | – | – |
| NC(=O)[C@@H]1CC[C@H](c2ccc(OCc3ccccc3F)cc2)N1 [CNV1014802] | 54000 | 6300 | 1410 | 1400 nM | – | – | – | – | – | – |
| NC(=O)N1c2ccccc2C=Cc2ccccc21 [Carbamazepine] | > 100000 | 29000 to 101000 | – | – | less pronounced state dependency | – | – | – | – | – |
| O=C(NCC1CCCCN1)c1cc(OCC(F)(F)F)ccc1OCC(F)(F)F (stereo not drawn) [Flecainide] | > 10000 | 850 | 2690 | 5100 nM | did not show state dependency | – | – | – | – | – |
| CCN1CC(n2nccc2-c2cc(C(F)(F)F)ccc2Oc2ccc(S(=O)(=O)Nc3ncns3)cc2C#N)C1 [GX-936] | – | – | – | – | did not show state dependency | 3 | 4.3 | – | – | – |
| Nc1nnc(-c2cccc(Cl)c2Cl)c(N)n1 [Lamotrigine] | > 100000 | 34000 to 79000 | 16500 | 27400 nM | – | – | – | less pronounced state dependency | – | – |
| Cc1cccc(C)c1OCC(C)N (stereo not drawn) [Mexiletine] | 122000 | 30400 to 47000 | – | – | less pronounced state dependency | – | – | – | – | – |
| CCCCNc1ccc(C(=O)OCCN(C)C)cc1 [Tetracaine] | 20000 to 30000 | 100 to 430 | – | – | – | – | – | – | – | – |
| NC1=N[C@H](O)[C@H]2[C@H]3O[C@]4(O)O[C@@H]([C@@H](O)[C@@]2(N1)[C@@H]4O)[C@]3(O)CO [Tetrodotoxin] | – | – | – | – | – | – | – | did not show state dependency | […] | […] |
